Drawing on a melting point compilation (Tetko et al.; mined from patent text by program, amines drawn as free bases though some values may be those of a salt), this text covers melting point for 86 molecules.

In general, melting point refers to the temperature of the solid-liquid transition. `CCN(CC)C(=O)n1ccc(Sc2cccc(C)c2)n1` showed a melting point of 96 to 98 °C.

Consider `O=C(c1cccs1)c1cnn2c(-c3cccc(-c4ccn(CCN5CCCC5)n4)c3)ccnc12`, for which the melting point amounted to 63 °C.

Molecule `O=c1cc(C(F)(F)F)nc(Cl)n1-c1cc(Oc2ccccc2[N+](=O)[O-])c(Cl)cc1F` had a melting point of 128 to 131 °C.

Turning to `CC(O)CNS(=O)(=O)c1ccc(Nc2nc(OCC3CCCCC3)c3nc[nH]c3n2)cc1` (stereo unspecified), the melting point was in the range of 236 to 238 °C.

`Cc1c(C)c2c(c(C)c1NC(=O)CCCOCc1ccccc1)C(c1ccc(C(C)C)cc1)CO2` (stereo unspecified) gave a melting point of 85 to 86 °C.

As for `Cc1c(C)c(NC(=O)CC(C)(C)C)c2c(c1C)C(O)(c1ccc(C(C)C)cc1)C(C)(C)O2` (stereo unspecified), the melting point fell in the range of 178 to 179 °C.

`COCN(COC)c1ccn2nc(-c3ccccc3)c(-c3ccc(=O)n(C(C)C)n3)c2c1` displayed a melting point of 148 to 150 °C.

In the case of `Cc1cnc2c(C#N)c(C)nn2c1-c1ccccc1`, the melting point was 208 to 210 °C.

Molecule `c1ccc(CSc2ncnc3c(N4CCOCC4)nc(N4CCNCC4)nc23)cc1` displayed a melting point of 191 to 193 °C.

Consider `CCc1cccc2c(/C=C/C(=O)N3CCCCC3)cc(OC)c(OCOC)c12`, for which the melting point lay within 85 to 86 °C.

In turn, `COc1ccccc1CNc1ccc2cc(Nc3nc4cc(C)ccc4o3)ccc2n1` returned a melting point of 220 °C.

`CCCCCCCCCCCCCCCCCCOc1cc(N)cc(OCCCCC(=O)OC)c1` had a melting point of 57 to 59 °C.

`CCOc1ccccc1-c1nc2c(C(N)=O)ccnc2c(=O)[nH]1` displayed a melting point of 295 to 297 °C.

`Cn1c(=O)c(Oc2ccc(F)cc2F)cc2cnc(S(C)(=O)=O)nc21` registered a melting point of 177 to 178 °C.

`COc1cc(C(=O)N2CCN(C(=O)CNC3CCN(Cc4ccccc4)CC3)C(c3ccc(Cl)c(Cl)c3)C2)cc(OC)c1OC` (racemic) showed a melting point of 67 to 70 °C.

The molecule `CCc1c(CN(C)S(=O)(=O)c2cccc(Cl)c2)nn(-c2ccc(Cl)cc2Cl)c1-c1ccc(Br)cc1` gave a melting point of 78 °C.

On to `CCOC(=O)Cc1ccc(CCN2CCN(C(=O)C=Cc3cc(C(C)(C)C)c(O)c(C(C)(C)C)c3)CC2)cc1`, for which the melting point is 111 to 113 °C.

With `CCOC(=O)C1(C)Oc2c(OC)cccc2C1=O` (stereo unspecified), the melting point is 81 to 82 °C.

`C[C@H](NC(=O)c1c[nH]c2ncc(-c3cn(-c4cccc(Cl)c4)cn3)nc12)C(C)(C)C` had a melting point of 337 to 339 °C.

In the case of `CCOC(=O)/C(F)=C/c1ccc(N2C[C@H](CNC(C)=O)OC2=O)cc1`, the melting point lay in the range of 161 to 163 °C.

`CN1CCN(C(=O)Cn2nc(-c3ccccc3O)nc2-c2ccccc2O)CC1` came in with a melting point of 199 to 201 °C.

`C=CC[C@@H]1CCc2cc(OC)ccc2[C@H]1O` (relative stereo) came in with a melting point of 63 to 65 °C.

`CC(=O)Oc1cnc(C(C)(C)C)nc1O`: the melting point came to 164 °C.

Turning to `CCCCCCCCSCCSc1nc(N)n[nH]1`, the melting point is 85 to 86 °C.

For the molecule `CC1(C)Oc2ccc(C#N)cc2C(OC(=O)C2CCCN2S(=O)(=O)c2ccc([N+](=O)[O-])cc2)C1Br` (stereo unspecified), the melting point lay in the range of 177 to 180 °C.

In turn, `Cc1c(C(=O)Nc2ccc(OCCN3CCOCC3)c(C#N)c2)cnn1-c1ccc(C(F)(F)F)cc1` had a melting point of 191 to 193 °C.

`CCOC(=O)Cc1ccc(NC(=O)C(COc2ccc(Cl)cc2)NS(=O)(=O)c2ccc(F)cc2)cc1` (racemic) displayed a melting point of 132 to 134 °C.

Take `O=C1c2ccccc2S(=O)CC1(CO)CO` (stereo unspecified): the melting point was 108 to 111 °C.

With `COc1c(Nc2ncc(Cl)c(N[C@@H]3CCCC[C@H]3NS(C)(=O)=O)n2)ccc2c1CCCC(NCCO)C2` (stereo partly specified), the melting point was 92 to 94 °C.

For `COCOc1ccc(-c2cc(S(C)=O)nn2-c2ccc(OC)cc2)cc1` (stereo unspecified), the melting point was 137 °C.

The molecule `CC(=O)c1ccc(C#Cc2ccc(C(C)=O)s2)s1` registered a melting point of 214 °C.

`Oc1cccc2c1OCCCO2` displayed a melting point of 112 to 114 °C.

`COC(=O)c1cccc(C(NCC(=O)Nc2c(C(C)C)cccc2C(C)C)c2ccccc2)c1` (stereo unspecified) had a melting point of 131 to 132 °C.

`CCCC1C/C(=C\C(=O)NC2CC2)c2cc(F)ccc21` (stereo unspecified) registered a melting point of 94 to 97 °C.

The molecule `CC12CCC(O)CC1=CCC1C2CCC2(C)C(n3ccnc3)=CCC12` (stereo unspecified) had a melting point of 220 to 223 °C.

Molecule `O=C(NC1CN2CCC1CC2)c1cccc2c1CCC2` (racemic) displayed a melting point of 158 °C.

For `CC1(C)c2c(ccc3cc(C#N)c(Cn4cncn4)cc23)OC1O` (stereo unspecified), the melting point fell in the range of 219 to 222 °C.

For the molecule `CN1CCc2cc([N+](=O)[O-])c(O)cc2C(c2cccc3c2OCC3)C1` (single isomer, unassigned; (+)), the melting point is 122 to 123 °C.

The molecule `COc1cc2c(cc1Nc1ncc(Cl)c(Nc3ccc(N(C)C)cc3OC)n1)CCN(CC(=O)N1CCN(C)CC1)CC2` showed a melting point of 145 °C.

`CC(C)(C)c1cc(Cl)c2c(c1)C=NS(=O)(=O)O2` yielded a melting point of 127 to 130 °C.

`COC(=O)c1ccc(OC(=O)CCC(=O)Oc2ccc(C(=O)OC)cc2)cc1`: the melting point was 190 °C.

In turn, `O=C(C=Cc1cccc(S(=O)(=O)NCc2cccc3ccccc23)c1)NO` had a melting point of 177 °C.

`COC(=O)CCC(=O)c1ccc(NC(=O)c2ccc(C)cc2)cc1` gave a melting point of 192 to 195 °C.

Take `COc1ccc2cnc(Nc3ccccc3)nc2c1C1CCCC1`: the melting point fell in the range of 187 to 188 °C.

For the molecule `CC(C)OC(=O)c1cc(-n2c(=O)[nH]c3c(c2=O)CCCC3)ccc1Cl`, the melting point is 205 to 207 °C.

In turn, `CCCc1cc(=O)oc2cc(OS(=O)(=O)c3ccc(C)cc3)c3c(c12)OC(C)(C)C=C3` gave a melting point of 150 to 151 °C.

`O=c1[nH]c2ncc(-c3ccncc3)nc2n1CC1CCCCC1` had a melting point of 267 to 269 °C.

The molecule `COc1ccc(N(C)CCN(C)CCCN2CCc3cc(OC)c(OC)cc3NC2=O)cc1OC` registered a melting point of 117 to 119 °C.

`COc1nc(C)nc(NC(=O)NS(=O)(=O)c2cccc3c2nnn3C)n1` returned a melting point of 134 to 136 °C.

`CC(C)(C)NC(=O)c1nn(-c2ccc(Cl)cc2F)c2c1C1CCC2C1` (stereo unspecified) yielded a melting point of 148 to 152 °C.

Regarding `Cc1ccc2c(c1Cl)C(=O)N(C1(C#N)CCCCC1)C2=O`, the melting point is 165 to 168 °C.

Turning to `CN1C(=O)COc2c(C(=O)NC3CN4CCC3CC4)cc(O)cc21` (stereo unspecified), the melting point was in the range of 250 to 251 °C.

In turn, `CC(C)n1c(=O)ccc2cnc(Nc3cccc([N+](=O)[O-])c3)nc21` registered a melting point of 202 to 203 °C.

As to `O=C(NC1CCC(c2cc(Nc3cccc(C(F)(F)F)c3)n[nH]2)C1)C1CCC1` (stereo unspecified), the melting point is 232 °C.

As to `Cn1c(C(F)(F)F)cc(=O)n(-c2ccc3snc(C4(O)N=C(c5ccccc5)NC4=O)c3c2)c1=O` (stereo unspecified), the melting point lay within 139 to 141 °C.

Molecule `CC(=O)NC[C@H]1CN(c2ccc(N3C[C@H]4CN(C(=O)OCc5ccccc5)C[C@H]4C3)c(F)c2)C(=O)O1` showed a melting point of 165 to 168 °C.

Consider `N#Cc1ccc(N2C(=O)NC(CO)(CO)C2=O)cc1C(F)(F)F`, for which the melting point was 207 to 208 °C.

Molecule `COc1cc(CCC(=O)CC(=O)c2ccccc2)ccc1O` came in with a melting point of 76 to 78 °C.

Take `Cc1c(C(=O)CS(=O)(=O)Cc2ccc(Cl)cc2)sc2ccc(Cl)cc12`: the melting point fell in the range of 204 to 206 °C.

`CCOC(=O)c1cc(OC)c(C(=O)OCC)cc1Br` had a melting point of 61 to 63 °C.

Consider `O=C(O)CCCCc1c[nH]c2ccccc12`, for which the melting point was in the range of 80 to 83 °C.

Turning to `Fc1ccc(-c2c3cccc(C(F)(F)F)c3nn2Cc2ccc(F)cc2Cl)cc1`, the melting point amounted to 78 °C.

`CCC1(C)SC(NC)=NN1C(=O)C(C)(C)C` (stereo unspecified): the melting point lay in the range of 132 to 136 °C.

Molecule `Cn1cc(Br)cc(Br)c1=O` gave a melting point of 87 to 88 °C.

On to `O=C(CBr)Nc1ccccc1`, for which the melting point lay within 131 to 135 °C.

On to `CCCN(CC1CC1)c1nc(C)nc2c1CCCC2(C)c1ccc(Cl)cc1` (stereo unspecified), for which the melting point is 171 to 172 °C.

On to `CCCCCCCCCCCCCCCC(=O)OC[C@H]1OCC(=NO)[C@@H](O)[C@@H]1O`, for which the melting point lay within 97 to 104 °C.

In turn, `O=[N+]([O-])c1c(NCC23CCCN2CCC3)ccc2ccccc12` registered a melting point of 86 to 87 °C.

In the case of `COc1ccc(-n2nnc(-c3ccc(Cl)cc3Cl)c2N)cc1`, the melting point lay in the range of 155 to 164 °C.

For `CCCCCCCCCCCCCCCCCCOc1cc(OCCCOc2ccc(S(C)=O)cc2)cc(C(=O)O)c1` (stereo unspecified), the melting point lay in the range of 77 to 80 °C.

Take `NC(=O)Cc1ccc2c(c1)CCc1ccccc1O2`: the melting point lay in the range of 205 to 206 °C.

In the case of `C(=C\c1cc(/C=C/c2c[nH]c3ccccc23)n[nH]1)/c1ccc(OCc2ccccn2)cc1`, the melting point lay in the range of 196 to 199 °C.

The molecule `COc1cc2c3c(c1O)CN(C)CC3c1ccccc1CC2` (stereo unspecified) registered a melting point of 173 to 174 °C.

With `CNC(=O)C(=NOC)C1=C(COc2ccccc2C)CC(C)=C(C)C1`, the melting point lay within 96 to 98 °C.

Take `CCOC(=O)c1cnn2c1c(O)nc1ccccc12`: the melting point fell in the range of 249 to 251 °C.

Take `COc1ccc(N2N=C3c4cc(Cl)ccc4SCCC3CC2=O)cc1` (stereo unspecified): the melting point lay in the range of 159 to 161 °C.

The molecule `O=C(C1Nc2cc(F)ccc2-n2cnc(-c3nc(C4CC4)no3)c21)N1CCOCC1` (stereo unspecified) gave a melting point of 240 to 242 °C.

In turn, `Nc1cc(Cl)nc(OCc2cccc3ccccc23)n1` gave a melting point of 160 to 161 °C.

For the molecule `CCCCN(C)C(=NC#N)NCc1cccnc1`, the melting point is 65 to 69 °C.

`CCOP(=O)(OCC)c1ccccc1` came in with a melting point of 256 °C.

For `O=C1C(c2cc3c(cc2O)OCC3)c2ccc(F)cc2N1C(c1ccccc1)c1ccccc1` (stereo unspecified), the melting point lay within 121 to 123 °C.

`CCCCCOc1cc2c(cc1/C=C/c1ccc(C(=O)O)cc1)C(C)(C)CCC2(C)C` registered a melting point of 148 to 149 °C.

The molecule `O=C(O)c1c(CNS(=O)(=O)c2cccc(Cl)c2)nn(-c2ccc(Cl)cc2Cl)c1-c1ccc(Cl)cc1` showed a melting point of 211 °C.

With `O=[N+]([O-])c1ccccc1COc1ccc2ncc3c(c2c1)C(O)CCC3` (stereo unspecified), the melting point was in the range of 181 to 183 °C.

Turning to `NC(=O)Nc1ccc(OCCn2ccnc2)cc1`, the melting point fell in the range of 199 to 201 °C.

Turning to `Cn1cc(-c2cccc(Br)c2)c(=O)c(-c2ccccc2Cl)c1`, the melting point is 177 to 179 °C.
